Structures can show the parent of a compound that is named as a salt.
Molecular target: T1, NMDA receptor (Rattus norvegicus, UniProt P35439)
T1 construct: from tissue; host or cells: rat cortical slice
Assay: antagonism of responses to NMDA, rat cortical slice preparation
Format: cell-based
Conditions: not given
Method: The effects of compounds of the invention on responses to the agonists NMDA, kainate and quisqualate were assessed using the rat cortical slice preparation as described by Wong et al., Proc. Natl. Acad. Sci. USA, 1986, 83, 7104. The apparent equilibrium constants (Kb) were calculated from the righthand shift in the agonist concentration-response curve.
`O=C(O)c1cc(O)c2ccc(Br)cc2n1` [7-bromo-4-oxo-1,4-dihydroquinoline-2-carboxylic acid] gave a Kb of less than 100 µM.

Same assay, conditions: rat cortical slice; apparent equilibrium constant (Kb) calculated from righthand shift in the agonist concentration-response curve; read-out: NMDA antagonist activity at concentrations (Kb)
Work on `O=C(NOCc1ccccc1)c1cc(=O)c2c(Cl)cc(Cl)cc2[nH]1` [5,7-Dichloro-4-oxo-1,4-dihydroquinoline-2-(O-benzyl)hydroxamic acid] yielded a Kb of less than 100 µM. `O=C(NO)c1cc(=O)c2c(Cl)cc(Cl)cc2[nH]1` [5,7-Dichloro-4-oxo-1,4-dihydroquinoline-2-hydroxamic acid potassium salt.] showed a Kb of less than 100 µM. `Cc1cc(C)c2c(O)cc(C(=O)O)nc2c1` [5,7-Dimethyl-4-oxo-1,4-dihydroquinoline-2-carboxylic acid] gave a Kb of less than 100 µM. Work on `O=C(O)c1cc(O)c2c(Br)cc(Br)cc2n1` [5,7-dibromo-4-oxo-1,4-dihydroquinoline-2-carboxylic acid] yielded a Kb of less than 100 µM. Work on `O=C(O)c1cc(O)c2c(Cl)cc(Cl)cc2n1` [5,7-dichloro-4-oxo-1,4-dihydroquinoline-2-carboxylic acid] yielded a Kb of less than 100 µM. In the case of `CCc1cc(Br)c2c(O)cc(C(=O)O)nc2c1` [5-Bromo-7-ethyl-4-oxo-1,4-dihydroquinoline-2-carboxylic acid], the Kb is reported as less than 100 µM. In the case of `Cc1cc(Br)c2c(O)cc(C(=O)O)nc2c1` [5-Bromo-7-methyl-4-oxo-1,4-dihydroquinoline-2-carboxylic acid], the Kb is reported as less than 100 µM. For `CCc1cc(Cl)c2c(O)cc(C(=O)O)nc2c1` [5-Chloro-7-ethyl-4-oxo-1,4-dihydroquinoline-2-carboxylic acid], the Kb was less than 100 µM. In the case of `O=C(O)c1cc(O)c2c(Cl)cc(I)cc2n1` [5-Chloro-7-iodo-4-oxo-1,4-dihydroquinoline-2-carboxylic acid], the Kb is reported as less than 100 µM. For `CCc1cccc2nc(C(=O)O)cc(O)c12` [5-Ethyl-4-oxo-1,4-dihydroquinoline-2-carboxylic acid], the Kb was less than 100 µM. With `O=C(O)c1cc(=O)c2c(F)cccc2[nH]1` [5-Fluoro-4-oxo-1,4-dihydroquinoline-2-carboxylic acid] the Kb was less than 100 µM. Work on `O=C(O)c1cc(O)c2c(I)cccc2n1` [5-Iodo-4-oxo-1,4-dihydroquinoline-2-carboxylic acid] yielded a Kb of less than 100 µM. With `Cc1cc(I)c2c(O)cc(C(=O)O)nc2c1` [5-Iodo-7-methyl-4-oxo-1,4-dihydroquinoline-2-carboxylic acid] the Kb was less than 100 µM. In the case of `O=C(O)c1cc(=O)c2c(C(F)(F)F)cccc2[nH]1` [5-Trifluoromethyl-4-oxo-1,4-dihydroquinoline-2-carboxylic acid], the Kb is reported as less than 100 µM. In the case of `O=C(O)c1cc(=O)c2c(Br)cccc2[nH]1` [5-bromo-4-oxo-1,4-dihydroquinoline-2-carboxylic acid], the Kb is reported as less than 100 µM. `O=C(O)c1cc(O)c2c(Cl)cccc2n1` [5-chloro-4-oxo-1,4-dihydroquinoline-2-carboxylic acid] gave a Kb of less than 100 µM. In the case of `Cc1cccc2nc(C(=O)O)cc(O)c12` [5-methyl-4-oxo-1,4-dihydroquinoline-2-carboxylic acid], the Kb is reported as less than 100 µM. In the case of `O=C(O)c1cc(=O)c2cc(F)ccc2[nH]1` [6-fluoro-4-oxo-1,4-dihydroquinoline-2-carboxylic acid], the Kb is reported as less than 100 µM. Work on `CCc1cc(Br)cc2nc(C(=O)O)cc(O)c12` [7-Bromo-5-ethyl-4-oxo-1,4-dihydroquinoline-2-carboxylic acid] yielded a Kb of less than 100 µM. Work on `Cc1cc(Br)cc2nc(C(=O)O)cc(O)c12` [7-Bromo-5-methyl-4-oxo-1,4-dihydroquinoline-2-carboxylic acid] yielded a Kb of less than 100 µM. `CCc1cc(Cl)cc2nc(C(=O)O)cc(O)c12` [7-Chloro-5-ethyl-4-oxo-1,4-dihydroquinoline-2-carboxylic acid] gave a Kb of less than 100 µM. `O=C(O)c1cc(O)c2c(I)cc(Cl)cc2n1` [7-Chloro-5-iodo-4-oxo-1,4-dihydroquinoline-2-carboxylic acid] gave a Kb of less than 100 µM. `Cc1cc(I)cc2nc(C(=O)O)cc(O)c12` [7-Iodo-5-methyl-4-oxo-1,4-dihydroquinoline-2-carboxylic acid] showed a Kb of less than 100 µM. `O=C(O)c1cc(O)c2ccc(Cl)cc2n1` [7-chloro-4-oxo-1,4-dihydroquinoline-2-carboxylic acid] showed a Kb of less than 100 µM. Work on `O=C(O)c1cc(O)c2ccc(F)cc2n1` [7-fluoro-4-oxo-1,4-dihydroquinoline-2-carboxylic acid] yielded a Kb of less than 100 µM. `O=C(O)c1cc(O)c2ccc(I)cc2n1` [7-iodo-4-oxo-1,4-dihydroquinoline-2-carboxylic acid] showed a Kb of less than 100 µM. `Cc1ccc2c(O)cc(C(=O)O)nc2c1` [7-methyl-4-oxo-1,4-dihydroquinoline-2-carboxylic acid] gave a Kb of less than 100 µM. For `O=C(O)c1cc(=O)c2ccc([N+](=O)[O-])cc2[nH]1` [7-nitro-4-oxo-1,4-dihydroquinoline-2-carboxylic acid], the Kb was less than 100 µM.

Test system: excitatory amino acid receptors
Assay: not given
Conditions: statement in words; R.H. Evans et al., Br. J. Pharmac., 1987, 91, 531; cited from earlier work
For `O=C(O)c1cc(=O)c2ccccc2[nH]1` [Kynurenic acid, 4-oxo-1,4-dihydroquinoline-2-carboxylic acid], the “antagonist of excitatory amino acid receptors” value is listed as “weak and non-selective antagonist”.
